The results in this text go back to patent US9469645B2, “Compounds and compositions for the treatment of parasitic diseases” (Novartis AG, priority 2009, dated 2016).

One test concerns 3D7 P. falciparum strain. Put plainly: parasite proliferation assay in infected red blood cells (SYBR Green I). Format: cell-based, Plasmodium falciparum. The conditions noted are these: Plasmodium falciparum, 3D7, Erythrocyte, read-out: EC50 3D7 strain. From the text:
(§1) Compounds of the invention can be assayed to measure their capacity to inhibit proliferation of parasitemia in infected red blood cells. The proliferation is quantified by the addition of SYBR Green I (INVITROGEN)® dye which has a high affinity for double stranded DNA.
The following assay illustrates the invention without in any way limiting the scope of the invention. This parasite proliferation assay measures the increase in parasite DNA content using a DNA intercalating dye, SYBR Green®.
3D7 P. falciparum strain is grown in complete culturing media until parasitemia reaches 3% to 8% with O+ human erythrocytes. 20 μl of screening media is dispensed into 384 well assay plates. […] 10 μl of lysis buffer (saponin, triton-X, EDTA) containing a 10× solution of SYBR Green I® in RPMI media is dispensed into the plates. The plates are lidded and kept at room temperature overnight for the lysis of the infected red blood cells.

The test system of the next test is W2 strain. Put plainly: parasite proliferation assay in infected red blood cells (SYBR Green I), W2 strain. Format: cell-based. The following applies: Erythrocyte.
Excerpt: as §1

Where two headings read alike, the source gives them in different places.

Usually EC50 stands for the midpoint of the concentration-response curve. As to `Cc1cc(C)cc(Nc2c(-c3ccccc3)nc3n2CCN(C(=O)CN)C3)c1` [Compound 2], the values for the EC50 in the test with 3D7 P. falciparum strain (3D7 strain) and in the test on W2 strain were 3480 nM and 3350 nM, respectively.

Take `CC(C)(N)C(=O)N1CCn2c(nc(-c3ccc(F)cc3)c2Nc2ccc(F)cc2)C1` [Compound 3]: the concentration for a half-maximal effect (EC50) is 20 nM in the test on 3D7 P. falciparum strain (3D7 strain) and 25 nM in the test on W2 strain. On the same counts, the results for `NCC(=O)N1CCn2c(nc(-c3ccc(F)cc3)c2Nc2ccc(F)cc2)C1` [Compound 4] are 20 nM and 23 nM. For `CC(C)(N)C(=O)N1CCn2c(nc(-c3ccc(F)cc3)c2Nc2ccc3c(c2)OCO3)C1` [Compound 5], in that order: 4330 nM and above 8900 nM.

`NCC(=O)N1CCn2c(nc(-c3ccc(F)cc3)c2NC2CCCC2)C1` [Compound 6]: the values for the EC50 in the test with 3D7 P. falciparum strain (3D7 strain) and with W2 strain were 4380 nM and 4640 nM, respectively.

For the molecule `NCC(=O)N1CCn2c(nc(-c3ccccc3)c2NC2CCCC2)C1` [Compound 7], the half-maximal effective concentration (EC50) with 3D7 P. falciparum strain (3D7 strain) was found to be 15800 nM; with W2 strain, 7780 nM.

For the molecule `CC(C)(N)C(=O)N1CCn2c(nc(-c3ccccc3)c2Nc2ccccc2)C1` [Compound 8], the figures for the EC50 in the test with 3D7 P. falciparum strain (3D7 strain) and in the test on W2 strain were 620 nM and 501 nM, respectively.

As to `O=C(CN1CCC(C(F)(F)F)CC1)N1CCn2c(nc(-c3ccc(F)cc3)c2Nc2ccc(F)cc2)C1` [Compound 61], the half-maximal effective concentration (EC50) in the test with 3D7 P. falciparum strain (3D7 strain) was found to be 9240 nM. The same measure, in the same setting: under `NCC(=O)N1CCn2c(nc(-c3ccc(F)cc3)c2Nc2ccc(F)c(Cl)c2)C1` [Compound 78] stands 10 nM.

In the test on W2 strain, `Cc1ccc(Nc2c(-c3ccc(F)cc3)nc3n2CCN(C(=O)C(O)c2ccccc2)C3)cc1` (stereo not drawn) [Compound 82] had an EC50 of 7 nM. As for `Cc1ccc(Nc2c(-c3ccc(F)cc3)nc3n2CCN(C(=O)CCO)C3)cc1` [Compound 103], in the test with 3D7 P. falciparum strain (3D7 strain), the 50% effective concentration (EC50) was found to be 1020 nM. The same measure, in the same setting: under `Cc1ccc(Nc2c(-c3ccc(F)cc3)nc3n2CCN(C(=O)[C@H]2CCC[C@@H]2O)C3)cc1` [Compound 105] stands 850 nM. On to `Cc1ccc(Nc2c(-c3ccc(F)cc3)nc3n2CCN(C(=O)[C@@H](O)Cc2ccccc2)C3)cc1` [Compound 106], for which, in the test with W2 strain, it took 4 nM to reach a half-maximal effect (EC50). Take `Cc1ccc(Nc2c(-c3ccc(F)cc3)nc3n2CCN(C(=O)CC(C)O)C3)cc1` (stereo not drawn) [Compound 108]: the EC50 with 3D7 P. falciparum strain (3D7 strain) is 960 nM. On to `Cc1ccc(Nc2c(-c3ccc(F)cc3)nc3n2CCN(C(=O)[C@H](O)Cc2ccccc2)C3)cc1` [Compound 109], for which, in the test on 3D7 P. falciparum strain (3D7 strain), the 50% effective concentration (EC50) stood at 40 nM. Same read-out and setting: then `Cc1ccc(Nc2c(-c3ccc(F)cc3)nc3n2CCN(C(=O)C(C)(O)c2ccccc2)C3)cc1` (stereo not drawn) [Compound 111], with 20 nM.

Turning to `Cc1ccc(Nc2c(-c3ccc(F)cc3)nc3n2CCN(C(=O)C(O)(c2ccccc2)c2ccccc2)C3)cc1` [Compound 112], the half-maximal effective concentration (EC50) with 3D7 P. falciparum strain is 1430 nM. `Cc1ccc(Nc2c(-c3ccc(F)cc3)nc3n2CCN(C(=O)C(C)(C)C(O)c2ccc(C)cc2)C3)cc1` (stereo not drawn) [Compound 119]: in the test with 3D7 P. falciparum strain (3D7 strain), the EC50 stood at 4740 nM.

Regarding `Cc1ccc(Nc2c(-c3ccc(F)cc3)nc3n2CCN(C(=O)C(O)c2cc(F)cc(F)c2)C3)cc1` (stereo not drawn) [Compound 123], in the test on 3D7 P. falciparum strain (3D7 strain), the EC50 was 30 nM. Regarding `Cc1ccc(Nc2c(-c3ccc(F)cc3)nc3n2CCN(C(=O)C(O)c2ccc(O)cc2)C3)cc1` (stereo not drawn) [Compound 130], the concentration giving a half-maximal response (EC50) with 3D7 P. falciparum strain (3D7 strain) came to 10 nM. On the same count and under the same terms, under `Cc1ccc(Nc2c(-c3ccc(F)cc3)nc3n2CCN(C(=O)[C@@H](N)C(C)C)C3)cc1` [Compound 169] stands 40 nM; under `NC(C(=O)N1CCn2c(nc(-c3ccc(F)cc3)c2Nc2ccc(Cl)c(F)c2)C1)C(F)(F)F` (stereo not drawn) [Compound 194], 50 nM. The same measure, in the same setting: then `CO[C@@H](C)C(=O)N1CCn2c(nc(-c3ccc(F)cc3)c2Nc2ccc(C)cc2)C1` [Compound 198], with 1360 nM. For `Cc1ccc(Nc2c(-c3ccc(F)cc3)nc3n2CCN(C(=O)C2CCCO2)C3)cc1` (stereo not drawn) [Compound 200], the EC50 in the test on 3D7 P. falciparum strain (3D7 strain) stood at 910 nM. In the test with W2 strain, `Cc1ccc(Nc2c(-c3ccc(F)cc3)nc3n2CCN(C(=O)[C@H](O)C(C)C)C3)cc1` [Compound 205] showed a concentration giving a half-maximal response (EC50) of 4 nM. `CCCCC(=O)OC(C(=O)N1CCn2c(nc(-c3ccc(F)cc3)c2Nc2ccc(C)cc2)C1)c1ccccc1` (stereo not drawn) [Compound 270]: the concentration giving a half-maximal response (EC50) in the test on 3D7 P. falciparum strain (3D7 strain) amounted to 50 nM. The same measure, in the same setting: under `CN(c1ccc(Cl)c(F)c1)c1c(-c2ccc(F)cc2)nc2n1CCN(C(=O)CN)C2` [Compound 293] stands 20 nM. The same measure, in the same setting: under `CC[C@H](C)[C@H](N)C(=O)N1CCn2c(nc(-c3ccc(F)cc3)c2Nc2ccc(Cl)c(F)c2)C1` [Compound 317] stands 20 nM. Same read-out and setting: then `CC(C)C[C@H](N)C(=O)N1CCn2c(nc(-c3ccc(F)cc3)c2Nc2ccc(Cl)c(F)c2)C1` [Compound 322], with 40 nM. `Cc1ccc(Nc2c(-c3cc(F)ccc3F)nc3n2CCNC3)cc1` [Compound 330]: the EC50 in the test on 3D7 P. falciparum strain (3D7 strain) stood at 4470 nM. On to `Fc1ccc(-c2nc3n(c2Nc2ccc(F)c(F)c2)CCNC3)cc1` [Compound 331, N-(3,4-difluorophenyl)-2-(4-fluorophenyl)-5,6,7,8-tetrahydroimidazo[1,2-a]pyrazin-3-amine], for which, in the test on 3D7 P. falciparum strain (3D7 strain), the 50% effective concentration (EC50) worked out at 140 nM. On the same count and under the same terms, then `O=C(C(Nc1ccccc1)c1ccccc1)N1CCn2c(nc(-c3ccc(F)cc3)c2Nc2ccc(Cl)c(F)c2)C1` (stereo not drawn) [Compound 332], with 1040 nM; and `O=C(Cc1ccccc1OC(F)(F)F)N1CCn2c(nc(-c3ccc(F)cc3)c2Nc2ccc(Cl)c(F)c2)C1` [Compound 333], with 1110 nM. Same read-out and setting: under `O=C([C@@H](O)Cc1ccccc1)N1CCn2c(nc(-c3ccc(F)cc3)c2Nc2ccc(Cl)c(F)c2)C1` [Compound 334] stands 50 nM; under `O=C(Cc1ccc(F)c(C(F)(F)F)c1)N1CCn2c(nc(-c3ccc(F)cc3)c2Nc2ccc(Cl)c(F)c2)C1` [Compound 335], 2300 nM; under `O=C(COc1ccccc1)N1CCn2c(nc(-c3ccc(F)cc3)c2Nc2ccc(Cl)c(F)c2)C1` [Compound 336], 40 nM. On the same count and under the same terms, under `O=C1CC(C(=O)N2CCn3c(nc(-c4ccc(F)cc4)c3Nc3ccc(Cl)c(F)c3)C2)CCN1` (stereo not drawn) [Compound 337] stands above 10000 nM; under `O=C([C@@H]1CCCN1)N1CCn2c(nc(-c3ccc(F)cc3)c2Nc2ccc(Cl)c(F)c2)C1` [Compound 338], 190 nM; under `NC(CC(=O)N1CCn2c(nc(-c3ccc(F)cc3)c2Nc2ccc(Cl)c(F)c2)C1)C(F)(F)F` (stereo not drawn) [Compound 339], 520 nM. As for `O=C([C@H]1CCCN1)N1CCn2c(nc(-c3ccc(F)cc3)c2Nc2ccc(Cl)c(F)c2)C1` [Compound 340], the concentration for a half-maximal effect (EC50) in the test on 3D7 P. falciparum strain (3D7 strain) stood at 200 nM. Still for that read-out and setting: then `Cc1ccc(C[C@H](N)C(=O)N2CCn3c(nc(-c4ccc(F)cc4)c3Nc3ccc(Cl)c(F)c3)C2)cc1` [Compound 341], with 10 nM.

`O=C(C1NCc2ccccc21)N1CCn2c(nc(-c3ccc(F)cc3)c2Nc2ccc(Cl)c(F)c2)C1` (stereo not drawn) [Compound 342]: in the test on 3D7 P. falciparum strain (3D7 strain), the EC50 was 5240 nM.

`O=C([C@@H]1Cc2ccccc2N1)N1CCn2c(nc(-c3ccc(F)cc3)c2Nc2ccc(Cl)c(F)c2)C1` [Compound 343]: the concentration giving a half-maximal response (EC50) in the test with 3D7 P. falciparum strain (3D7 strain) was determined as 7500 nM.

On to `N[C@H](CC(=O)N1CCn2c(nc(-c3ccc(F)cc3)c2Nc2ccc(Cl)c(F)c2)C1)Cc1ccc(Br)cc1` [Compound 344], for which, in the test with 3D7 P. falciparum strain (3D7 strain), the concentration giving a half-maximal response (EC50) stood at 210 nM. Same read-out and setting: then `COc1ccc(CSC[C@@H](N)C(=O)N2CCn3c(nc(-c4ccc(F)cc4)c3Nc3ccc(Cl)c(F)c3)C2)cc1` [Compound 346], with above 8800 nM. As to `O=C([C@H]1Cc2ccccc2CN1)N1CCn2c(nc(-c3ccc(F)cc3)c2Nc2ccc(Cl)c(F)c2)C1` [Compound 347], in the test with 3D7 P. falciparum strain (3D7 strain), the concentration for a half-maximal effect (EC50) was determined as 5920 nM. The same measure, in the same setting: under `NC(CC(F)(F)F)C(=O)N1CCn2c(nc(-c3ccc(F)cc3)c2Nc2ccc(Cl)c(F)c2)C1` (stereo not drawn) [Compound 348] stands 50 nM; under `CCCCOCCOCC(=O)N1CCn2c(nc(-c3ccc(F)cc3)c2Nc2ccc(C)cc2)C1` [Compound 349], 7480 nM. Same read-out and setting: under `CCOCC(=O)N1CCn2c(nc(-c3ccc(F)cc3)c2Nc2ccc(C)cc2)C1` [Compound 350] stands 660 nM. The same measure, in the same setting: then `COCCOCC(=O)N1CCn2c(nc(-c3ccc(F)cc3)c2Nc2ccc(C)cc2)C1` [Compound 351], with 1240 nM; and `Cc1ccc(Nc2c(-c3ccc(F)cc3)nc3n2CC(C)N(C(=O)CN)C3)cc1` (stereo not drawn) [Compound 352], with 10 nM. Regarding `CC(C)(N)C(=O)N1CCn2c(nc(-c3cccc(F)c3)c2Nc2ccc(F)c(C#N)c2)C1` [Compound 353], the EC50 in the test with 3D7 P. falciparum strain (3D7 strain) worked out at 210 nM. Molecule `CN[C@H](CC(C)C)C(=O)N1CCn2c(nc(-c3ccc(F)cc3)c2Nc2ccc(C)cc2)C1` [Compound 377] returned an EC50 in the test with W2 strain of 574 nM. Regarding `CC[C@H](N)C(=O)N1CCn2c(nc(-c3ccc(F)cc3)c2Nc2ccc(Cl)c(F)c2)C1` [Compound 393], the EC50 in the test on 3D7 P. falciparum strain (3D7 strain) was 20 nM. On the same count and under the same terms, under `Fc1ccc(-c2nc3n(c2Nc2ccc(F)c(Cl)c2)CCNC3)cc1` [Compound 447] stands 230 nM; under `N[C@@H](CC1CC1)C(=O)N1CCn2c(nc(-c3ccc(F)cc3)c2Nc2ccc(F)cc2)C1` [Compound 466], 30 nM; under `CC(C)(N)C(=O)N1CCn2c(nc(-c3ccc(F)cc3)c2Nc2ccc(F)c(Cl)c2)C1` [Compound 492], 50 nM.

In the case of `Cc1ccc(Sc2c(-c3ccc(F)cc3)nc3n2CCN(C(=O)CN)C3(C)C)cc1` [Compound 713, 2-amino-1-(2-(4-fluorophenyl)-8,8-dimethyl-3-(p-tolylthio)-5,6-dihydroimidazo[1,2-a]pyrazin-7(8H)-yl)ethanone], in the test with 3D7 P. falciparum strain (3D7 strain), the concentration giving a half-maximal response (EC50) turned out to be 8 nM. The same measure, in the same setting: then `Cc1ccc([S+]([O-])c2c(-c3ccc(F)cc3)nc3n2CCN(C(=O)CN)C3(C)C)cc1` (stereo not drawn) [Compound 721, 2-amino-1-(2-(4-fluorophenyl)-8,8-dimethyl-3-(p-tolylsulfinyl)-5,6-dihydroimidazo[1,2-a]pyrazin-7 (8H)-yl)ethanone], with 42 nM.
